The subject of data set [1] is southern armyworm (SAW). The data set is described as follows: southern armyworm mortality test (bush lima bean leaf dip). In kind it is in vivo, Prodenia eridania Cramer. The settings on record: Spodoptera eridania, foliar. An excerpt: (§1) Representative pest species have been used, illustratively, order Lepidoptera, more specifically, the southern armyworm (SAW), (Prodenia eridania Cramer), the tobacco budworm (TBW), (Heliothis virescens), and the cabbage looper (CL) (Trichoplusia ni); order Acarina, more specifically, the two-spotted spider mite (TSSM) (Tetranychus urticae Koch); order Diptera, more specifically, the housefly (HF) (Musca domestica Linnaeus) or the yellow-fever mosquito (YFM) (Aedes aegypti); order Orthoptera, more specifically, the house cricket (HC) (Acheta domesticus Linnaeus) or the German cockroach (GC) (Blatella germanica Linnaeus); order Coleoptera, more specifically, the cotton boll weevil (BW) (Anthonomus grandis Boheman).
(§2) Preparation of tested chemicals--Analytical samples of each were dissolved in acetone. These acetone solutions were applied as such or portions of them were diluted with a Tween 20 "wet water" or a 10% sucrose "wet water". The "wet water" itself contained 0.132% v/v of Tween 20 (polyoxyethylene sorbitan monolaurate).
(§3) The southern armyworm and cabbage looper tests were effected with Henderson bush lima bean foliage characterized by two primary leaves per replicate. The leaves were dipped into a "wet water" emulsion of a test chemical, allowed to dry, and then placed on a moistened filter disk in a 9 cm plastic petri dish. Five larva of the respective test insects were put on the leaves, the cover of the petri dish was replaced, and it was set aside for future evaluation. Three replications for each treatment rate were prepared.
(§4) The southern armyworm, house cricket, boll weevil, house fly, and cabbage looper tests were held at 22° C., while the yellow fever mosquito larvae tests were held at 27° C.
(§5) The tests were evaluated for insect kill (including moribund and knocked down) after 24, 48, and sometimes 72 hours.

In data set [2] the test system is yellow-fever mosquito (YFM). The data set is described as follows: whole plant or invertebrate. In kind it is in vivo. The settings on record: Aedes aegypti.
Excerpt: as §1, §2
The yellow fever mosquito larvae test was effected by adding the appropriate amount of a wet water and acetone solution of the test chemical to 100 ml distilled water in a 5-ounce waxed paper cup. Ten mosquito larvae were added. […]
as §5

Data set [3] is described as follows: crystallinity. In kind it is physicochemical.
The test system of data set [4] is cabbage looper (CL). The data set is described as follows: cabbage looper mortality test (bush lima bean leaf dip). In kind it is in vivo. The settings on record: Trichoplusia ni, foliar; for mortality at 11 ppm: rate 11 ppm.
Excerpt: as §1, §2, §3, §4, §5

Data set [5] concerns housefly (HF). The data set is described as follows: house fly mortality test (saturated cotton wad). The settings on record: Musca domestica. The class given is in vivo, Musca domestica Linnaeus.
Excerpt: as §1, §2
(§6) The house fly and boll weevil tests were effected by saturating a golf-ball size wad of cotton with 10 ml of a "10% wet sugar water" preparation of the test chemical. […]
as §5

The subject of data set [6] is cotton boll weevil (BW). The data set is described as follows: boll weevil mortality test (saturated cotton wad). The class given is in vivo, Anthonomus grandis Boheman.
Excerpt: as §1, §2, §6, §5

The test system of data set [7] is plant. The data set is described as follows: phytotoxicity compared with the parent compound. In kind it is in vivo. The settings on record: for average phytotoxicity index: after eight days, scale 0 = no damage, 10 = complete kill of plant. The source says: (§7) In other tests, the phytotoxicity, residual effectiveness, and animal toxicity of e.g. Methyl N-[[[[[(diethoxyphosphinothioyl)isopropylamino]thio]methylamino]carbonyl]oxy]ethanimidothioate were compared with the parent compound, methyl N-[[(methylamino)carbonyl]oxy]ethanimidothioate. […] The parent compound had corresponding index values of 4.25 and 5.0.

Data set [8] has as its system eggplant. As to the kind of experiment: phytotoxicity on the sensitive crop, eggplant, compared with the parent compound. In kind it is in vivo.
Excerpt: as §7

Data set [9] concerns southern armyworm larvae. As to the kind of experiment: foliar residual effectiveness against southern armyworm larvae on lima bean seedlings. The class given is in vivo, Prodenia eridania Cramer. An excerpt: These compounds were also compared for their foliar residual effectiveness against southern armyworm larvae on lima bean seedlings. The compound Methyl N-[[[[[(diethoxyphosphinothioyl)isopropylamino]thio]methylamino]carbonyl]oxy]ethanimidothioate of this invention was producing 100 percent mortality seven weeks after the treatment was applied, whereas the activity of the parent compound at an equivalent rate had dissipated to 20% by the 14th day.

Data set [10] in a line: acute oral toxicity to male rats. In kind it is in vivo, rat. The settings on record: rat, in vivo.
Data set [11] deals with male rats. As to the kind of experiment: acute oral toxicity to male rats. The class given is in vivo, rat.
Data set [12] relates to tobacco budworm (TBW). As to the kind of experiment: tobacco budworm mortality test. The class given is in vivo. The settings on record: Heliothis virescens.
Excerpt: as §1, §2, §5

Data set [13] is described as follows: Mammalian Toxicity, oral LD50, rat. The settings on record: in vivo.

Read-outs that look alike come from different tables or passages of the source.

A word on the mortality: it is the percentage killed. In data set [1], `CCCN(SN(C)C(=O)Oc1cc(C)c(N(C)C)c(C)c1)P(=S)(OCC)OCC` [4-(dimethylamino)-3,5-xylyl [[(diethoxyphosphinothioyl)-n-propylamino]thio]methylcarbamate] returned a mortality at 100 ppm of 100%. In [2] (rate 0.6 ppm), this molecule had a mortality at 0.6 ppm of 100%.
Consider `CSC(C)=NOC(=O)N(C)SN(C(C)(C)C)P1(=S)OCC(C)(C)CO1` [Methyl N-[[[[[(5,5-dimethyl-2-thioxo-1,3,2-dioxaphosphorinano-2-yl)tert-butylamino]thio]methylamino]carbonyl]oxy]ethanimidothioate], for which the crystallinity entry in [3] is listed as “extremely crystalline”.
By LD50 is commonly meant the dose at which mortality reaches 50%. Read a high LD50 as a less toxic substance. As for `CCOP(=S)(OCC)N(SN(C)C(=O)ON=C(C)SC)C(C)C` [Methyl N-[[[[[(diethoxyphosphinothioyl)isopropylamino]thio]methylamino]carbonyl]oxy]ethanimidothioate], the mortality at 3.3 ppm amounted to 100% in data set [1] and 100% in [4] (CL, rate 3.3 ppm, read-out: Mortality). In data set [2] (rate 1.0 ppm), this molecule displayed a mortality at 1 ppm of 100%. Moreover, in data set [5] (HF, rate 25 ppm, read-out: Mortality), the mortality at 25 ppm is 80%. Further, the mortality at 50 ppm in data set [6] (BW, rate 50 ppm) worked out at 60%. The figures for the average phytotoxicity index entry in data set [7] (300 ppm) and in data set [7] (600 ppm) were “about 1.0” and approximately 1.5, respectively. The “phytotoxicity compared with parent compound” value in data set [7] (in general) was “in general less phytotoxic than the parent”; in data set [8], “markedly less phytotoxic”. Moreover, the “mortality, foliar residual effectiveness” value in data set [9] (seven weeks after the treatment was applied, 70560 min) came out at 100%. Further, the LD50 in data set [10] is 105 mg/kg. Also, the “oral toxicity relative to the parent methylcarbamate” value in [11] is listed as “less than one fourth as toxic as the parent methylcarbamate”.
Turning to `COP(=S)(c1ccccc1)N(SN(C)C(=O)ON=C(C)SC)C(C)C` (centres unmarked) [Methyl N-[[[[[[methoxy(phenyl)phosphinothioyl]isopropylamino]thio]methylamino]carbonyl]oxy]ethanimidothioate], the figures for the mortality at 3.3 ppm in [1] and in data set [4] were 90% and 50%, respectively. The mortality at 25 ppm in data set [5] was found to be 50%; in data set [6], 80%.
On to `CSC(C)=NOC(=O)N(C)SN(C1CCCCC1)P1(=S)OCC(C)(C)CO1` [Methyl N-[[[[[cyclohexyl(5,5-dimethyl-2-thioxo-1,3,2-dioxaphosphorinan-2-yl)amino]thio]methylamino]carbonyl]oxy]ethanimidothioate], for which the mortality at 11 ppm turned out to be 70% in [1], 87.5% in data set [4] (CL) and 95% in data set [12]. Further, the LD50 in data set [13] was more than 8000 mg/kg.
With `CSC(C)=NOC(=O)N(C)SN(C(C)C)P1(=S)OCCO1` [Methyl N-[[[[[isopropyl(2-thioxo-1,3,2-phospholan-2-yl)amino]thio]methylamino]carbonyl]oxy]ethanimidothioate], the values for the mortality at 11 ppm in data set [1], in [4] (CL) and in data set [12] were 40%, 48% and 45%, respectively.
In turn, `CSC(C)=NOC(=O)N(C)SN(C(C)C)P1(=S)OC(C)CC(C)(C)O1` (centres unmarked) [Methyl N-[[[[[isopropyl(4,4,6-trimethyl-2-thioxo-1,3,2-dioxaphosphorinan-2-yl)amino]thio]methylamino]carbonyl]oxy]ethanimidothioate] showed a mortality at 11 ppm in [4] (CL) of 92.5%.
In the case of `CCC1(CC)COP(=S)(N(SN(C)C(=O)ON=C(C)SC)C(C)C)OC1` [Methyl N-[[[[[isopropyl(5,5-diethyl-2-thioxo-1,3,2-dioxaphosphorinan-2-yl)amino]thio]methylamino]carbonyl]oxy]ethanimidothioate], the mortality at 11 ppm in data set [1] was determined as 60%; in [4] (CL), 95%; in data set [12], 100%. This molecule also had an LD50 in data set [13] of more than 2000 mg/kg.
For `CCC1(CC)COP(=S)(N(SN(C)C(=O)ON=C(C)SC)C2CCCCC2)OC1` [Methyl-[[[[[cyclohexyl(5,5-diethyl-2-thioxo-1,3,2-dioxaphosphorinan-2-yl)amino]thio]methylamino]carbonyl]oxy]ethanimidothioate], the mortality at 11 ppm in data set [1] came to 70%; in [4] (CL), 77.5%; in [12], 95%. Further, in data set [13], the LD50 was more than 8000 mg/kg.
Turning to `CCN(SN(C)C(=O)ON=C(C)SC)P1(=S)OCC(C)(C)CO1` [Methyl-[[[[[ethyl(5,5-dimethyl-2-thioxo-1,3,2-dioxaphosphorinan-2-yl)amino]thio]methylamino]carbonyl]oxy]ethanimidothioate], the mortality at 11 ppm in data set [4] (CL) was determined as 56%.
In the case of `CSC(C)=NOC(=O)N(C)SN(C(C)C)P1(=S)OCCCO1` [Methyl-[[[[[isopropyl(2-thioxo-1,3,2-dioxaphosphorinan-2-yl)amino]thio]methylamino]carbonyl]oxy]ethanimidothioate], the mortality at 11 ppm in data set [1] worked out at 56%.
Take `CNC(=O)ON=C(C)SC` [methyl N-[[(methylamino)carbonyl]oxy]ethanimidothioate, reference compound]: the average phytotoxicity index is 4.25 in data set [7] (300 ppm) and 5.0 in [7] (600 ppm). The foliar residual activity in [9] (by the 14th day, at an equivalent rate) is recorded as 20%. Also, in data set [10], the LD50 was in the range of 17 to 24 mg/kg.

Values taken from patent US4208409A, “N-[(phosphinyl or phosphinothioyl)amino]thio-methylcarbamates and pesticidal methods” (priority 1978, dated 1980).
